Reference: paper PMC11926880, “Procognitive Potential of Neuroprotective Triazine 5-HT6 Receptor Antagonists Tested on Chronic Activity In Vivo in Rats: Computer-Aided Insight into the Role of Chalcogen-Differences on the Pharmacological Profile” (ACS Chemical Neuroscience, 2025)
Like-named read-outs stand apart in the source and are kept apart here.

Columns and labels:
[1] = tested on: rats; experiment: NORT after 21 day administration, discrimination index; assay type: in vivo, rat; settings: for reversal of (+)MK-801-induced memory disturbances (DI): (+)MK-801 0.1 mg/kg
Description: Standard laboratory food (LSM-B) and filtered water as well as environment enrichment were freely available. Animals were randomly divided into treatment groups using a computer-based random order generator. All of the experiments were performed by two observers unaware of the treatment applied between 9:00 and 14:00 on separate groups of animals.
In the NOR test (NORT), rats were randomly divided into experimental groups (n = 8/group). […] All compounds were prepared immediately before administration and were injected intraperitoneally (i.p.) in a constant volume of 2 mL/kg. […] The control group received 1% Tween 80 on the same schedule.
The test was carried out according to the method described by Ennaceur.[46] NORT was conducted in two black-painted wood boxes (60 cm × 60 cm × 60 cm). A video camera mounted above the boxes recorded all experiments. Two days before the test, the rats were placed in the empty experimental boxes for 5 min as a habituation to the test area. On the third day, the test was performed in 2 trials lasting for 3 min at one-hour intervals. First session, familiarization (T1) with two identical objects (A1 and A2) located in the opposite corners of the boxes, approximately 10 cm from the walls, and second trial, recognition (T2) with one familiar (A) and one novel object (B). Metal cans and glass jars with sand were used as the objects. The boxes were cleaned and dried after each measurement. The exploration time (E) of the objects (such as looking, licking, sniffing, or touching while sniffing) during T2 was measured, and the discrimination index (DI) was calculated according to the following formula: DI = (EB – EA)/(EA + EB).
The normality of data distribution and the homogeneity of variance were checked using the Shapiro–Wilk’s test and Levene’s test, respectively. All behavioral results are shown as the means ± SEM.

[2] = 1 mg/kg i.p., cited from earlier work
[3] = tested on: HT-22 cell line; experiment: protection against Aβ1–42, ROS (CellROX); assay type: cell-based, mouse; settings: 10 μM pretreatment 1 h, Aβ1–42 35 μM 16 h
Description: Cells were cultured in Dulbecco’s modified Eagle’s Medium-high glucose (DMEM, GlutaMAX ThermoFisher) supplemented with 10% inactivated fetal bovine serum heat (Thermo Fisher), 100 IU/mL penicillin (Merck), and 100 μg/mL streptomycin (Merck). Cells were cultured in flasks (area 175 cm^2, Nunc) and incubated at 37 °C, 5% CO2. To measure the neuroprotective effect against Aβ1–42, cells were placed in a 96-well culture plate (5 × 10^3 cells per well, Falcon).
Stock solutions were prepared at a concentration of 10 mM for the tested compounds. A minimum of 1 mg of each tested compound was weighed and dissolved in an appropriate volume of dimethyl sulfoxide (DMSO). Serial dilutions were prepared in DMSO, and then, the diluted compounds were transferred to phosphate-buffered saline (PBS), mixed, and put into a medium with adherent cells. Before the assays, eventual precipitation or opalescence was checked.
Aβ1–42 (Merck) was initially dissolved in 1,1,1,3,3,3- hexafluor-2-propanol (Merck). […] After this time, the Aβ1–42 solution was evaporated by using nitrogen gas. Next, DMSO was added to obtain a 2 mM stock solution of β-amyloid. […]
After the end of incubation with the tested compounds, the supernatant was removed, and cells were incubated with CellROX (5 μM) in DMEM FluoroBrite (ThermoFisher) for 1 h at 37 °C. The results are expressed as a percentage of control (Aβ1–42).

[4] = design: method as in PMID 38190615, PMID 35228010; settings: LC/MS after biotransformation in rLMs; cited from earlier work
[5] = tested on: HepG2; design: method as in PMID 38190615, PMID 35228010; settings: tested at 0.1–100 μM; cited from earlier work
[6] = tested on: NRF2; experiment: Western blot for NRF2 (total and nuclear extracts); assay type: cell-based, human; settings: 10 μM, 24 h
[7] = tested on: HT-22 cell line; experiment: protection against Aβ1–42, cell membrane damage (ToxiLight); assay type: cell-based, mouse; settings: 10 μM pretreatment 1 h, Aβ1–42 35 μM 16 h
Description: Cells were cultured in Dulbecco’s modified Eagle’s Medium-high glucose (DMEM, GlutaMAX ThermoFisher) supplemented with 10% inactivated fetal bovine serum heat (Thermo Fisher), 100 IU/mL penicillin (Merck), and 100 μg/mL streptomycin (Merck). Cells were cultured in flasks (area 175 cm^2, Nunc) and incubated at 37 °C, 5% CO2. To measure the neuroprotective effect against Aβ1–42, cells were placed in a 96-well culture plate (5 × 10^3 cells per well, Falcon). To measure the toxicity of tested compounds, cells were placed in a 96-well culture plate (5 × 10^3 and 2 × 10^4 cells per well, Falcon).
Stock solutions were prepared at a concentration of 10 mM for the tested compounds. A minimum of 1 mg of each tested compound was weighed and dissolved in an appropriate volume of dimethyl sulfoxide (DMSO). Serial dilutions were prepared in DMSO, and then, the diluted compounds were transferred to phosphate-buffered saline (PBS), mixed, and put into a medium with adherent cells. Before the assays, eventual precipitation or opalescence was checked. […]
Then, 20 μL of adenylate kinase detection reagent was added. The luminescence was measured after 10 min of incubation with a plate reader, POLARstar Omega (BMG Labtech). The results are expressed as a percentage of the control (Aβ1–42), corresponding to the percentage of dead cells concerning the control sample.

[8] = tested on: SH-SY5Y cells; experiment: qRT-PCR of neurodegeneration-associated genes; assay type: cell-based, human; settings: 24 h
[9] = design: method as in PMID 38190615; settings: serum, cited from earlier work
[10] = tested on: rats; settings: acute administration, cited from earlier work
[11] = tested on: SH-SY5Y cells; settings: 50 μM, 27 h; cited from earlier work
[12] = tested on: SH-SY5Y cells; experiment: MTS assay 72 h, neurotoxic effect; assay type: cell-based, human; settings: 10 and 50 μM
Description: SHSY5Y cells were grown in DMEM supplemented by 10% FBS, L-glutamine (2 mM), and penicillin (100u/mL)/streptomycin (100 μg/mL). The cell line was tested for mycoplasma using DAPI staining and the LookOut Mycoplasma PCR Detection Kit (MP0035, Merck). The cell line was authenticated after thawing by a morphology check, cell proliferation rate evaluation, and species verification by PCR. Bacteria contamination was excluded. […] Subsequently, cells were subjected to a CellTiter 96 AQueous One Solution Cell Proliferation Assay (Promega), according to the manufacturer’s protocol. The absorbance at 490 nm was evaluated to estimate the cell number.

[13] = design: method as in PMID 38190615, PMID 35228010; settings: AMES test; cited from earlier work
[14] = tested on: SH-SY5Y cells; experiment: ROS assay (2',7'DCFH2-DA), rotenone-induced neurotoxicity; assay type: cell-based, human; settings: ROT 32.5 μM alone, 3 h
Description: The ROS measurement was assayed by 2′,7′-dichlorofluorescin diacetate (2′, 7′DCFH2-DA, Sigma, no. D6883). The protocol was previously described in detail.[10] […] The following day, all treatments were carried out with warmed HBSS containing 25 mM HEPES (hereafter referred to as HBSS), and during the operational steps, the cells were kept at 37 °C to minimize temperature stress.

C[C@]12N[C@H](Cc3ccccc31)c1ccccc12 [(+)MK-801, reference compound]
effect on memory functions (DI) ([1]; 0.1 mg/kg i.p. once, 30 min before the test): induced deficits in memory functions

CN1CCN(c2nc(N)nc(C(C)(C)[Se]c3ccc4ccccc4c3)n2)CC1 [PPK-32]
detected in rat organs up to (time after administration) [2]: up to 120 min
Cmax ([2]; brain, highest value 30 min after administration): 54.9 ng/g
t1/2λz ([2]; liver): 1.42 h
decrease of ROS induced by Aβ [3]: displayed the ability to decrease ROS
metabolic stability, % of remaining structure [4]: 37%
hepatotoxic (statistically significant HepG2 viability decrease) [5]: >100 µM
NRF2 protein amount (total extract) ([6]; GAPDH loading control): protein amount was not modulated
NRF2 translocation from cytoplasm to nucleus ([6]; nuclear extracts, H3 loading control): distinctly stronger than that upon WA-22 treatment
reversal of (+)MK-801-induced memory disturbances (DI) ([1]; 1 mg/kg/day i.p., 21 days): inactive
reversal of (+)MK-801-induced memory disturbances (DI) ([1]; 3 mg/kg/day i.p., 21 days): significantly reversed
protection of cell integrity against membrane destruction caused by Aβ1–42 [7]: slightly more potent than the thioether WA-22
expression of beta-secretase BACE1 ([8]; 10 μM): negatively regulate
NRF2 transcription ([8]; 10 and 50 μM): neither WA-22 nor PPK-32 were able to stimulate its transcription
expression of NQO1, SOD1, and HO1 ([8]; 10 and 50 μM): induce the expression
expression of pro-inflammatory gene NFkB ([8]; 10 and 50 μM): neither WA-22 nor PPK-32 were able to downregulate
AUC0–∞ ([9]; 1 mg/kg i.p.): 1833.92 ng·min/mL
Cmax ([9]; 1.0 mg/kg i.p.): 34.9 ng/mL
memory-protective action at doses as low as ([10]; male Wistar rats, (+)MK-801): 0.3 mg/kg
reduction of cell viability compared to Ctr [11]: 45%
neurotoxic effect (MTS) [12]: no significant differences
mutagenic [13]: no

C=C(C)[C@H]1Cc2c(ccc3c2O[C@@H]2COc4cc(OC)c(OC)cc4[C@@H]2C3=O)O1 [ROT, Rotenone, reference compound]
ROS level (Ctr set as 100%) [14]: 176%

COc1cc2c(cc1OC)C(=O)C(CC1CCN(Cc3ccccc3)CC1)C2 (stereo not drawn) [donepezil, reference compound]
influence on memory compared to vehicle-treated rats (DI) ([1]; 1 mg/kg/day i.p., 21 days, without (+)MK-801): No memory changing
reversal of (+)MK-801-induced memory disturbances (DI) ([1]; 1 mg/kg/day i.p., 21 days): reverse memory disturbances
minimal active chronic dose ([1]; i.p., 21 days, reversal of (+)MK-801-induced memory impairments): 1 mg/kg/day
active dose in NOR test (significantly reversed MK-801 memory disturbances) ([10]; rat): g Dose of a compound that in a statistically significant manner reversed memory disturbances caused by MK-801 in the novel object recognition (NOR) test in rats;[12],[13] active dose for donepezil was 1 mg/kg. mg/kg i.p
